Laboratory results reported in patent US20250320252A1 (The Scripps Research Institute, priority 2021, published 2025).
“And” between values parts separate entries of the source, which are not always exact repeats. Equal values may be shown once. Read-outs that look alike come from different tables or passages of the source. Numbered stars: 1 amine (or outer) side, 2 acyl side, 3 side chain; on linkers, the order of the positions; unused ones are H or OH. Bridge positions count the residues as written; N and C are the ends. Square brackets hold non-standard residues; d marks the D form. Peptide text beside a SMILES is read from it. X2 = O=C(O)CCCCCCCCCCCCCCCCCCC(=O)N[C@@H](CCCCNC(=O)CCOCCOCCNC(=O)CCOCCOCCNC(=O)CCC(=O)N(CCNC(=O)C[*:1])CCNC(=O)C[*:2])C(=O)O; Aib = CC(C)(N)C(=O)O

Tests used:
[1] = Pharmacokinetics in CD-1 mouse, plasma concentration by LC-MS; assay type: in vivo; settings: individual animals
Procedure: The peptide plasma concentration at various time points was determined using LC-MS.

human GIPR = molecular target: T1, human GIPR (Homo sapiens, UniProt P48546); assay: In vitro receptor activation reporter assay (CRE-Luc), HEK293-GIPR-CRE; assay type: cell-based
T1 construct: expressed in transfected cells
T1 sequence (P48546 22-466): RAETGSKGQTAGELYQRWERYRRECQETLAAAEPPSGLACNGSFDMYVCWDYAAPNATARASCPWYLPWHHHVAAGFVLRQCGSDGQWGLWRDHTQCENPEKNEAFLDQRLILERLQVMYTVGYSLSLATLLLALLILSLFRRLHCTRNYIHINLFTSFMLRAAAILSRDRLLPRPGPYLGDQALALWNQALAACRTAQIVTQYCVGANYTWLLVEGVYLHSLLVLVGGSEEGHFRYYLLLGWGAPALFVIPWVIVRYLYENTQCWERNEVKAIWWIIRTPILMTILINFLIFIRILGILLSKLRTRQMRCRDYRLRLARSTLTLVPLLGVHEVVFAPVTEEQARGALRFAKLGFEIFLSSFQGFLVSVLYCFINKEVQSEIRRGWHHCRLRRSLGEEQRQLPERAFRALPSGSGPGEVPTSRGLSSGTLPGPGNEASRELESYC
Source text: HEK293 cells were infected with lentivirus encoding firefly luciferase gene under the control of cAMP responsive element (CRE) promoter (Qiagen, The Netherlands) and then were selected using 1 g mL^−1 puromycin (Life Technologies, Carlsbad) for 1 week. The surviving cells (referred to as CRE-HEK293) were expanded and then transfected with a G418 selective mammalian expression plasmid encoding human GLP-1R or GIPR. In brief, GLP-1R or GIPR plasmid was transfected into CRE-HEK293 cells using Lipofectamine 2000 and selected with 400 g mL^−1 Geneticin (Life Technologies, Carlsbad, CA). Single colony stable cell line overexpressing CRE-luciferase and GLP-1R or GIPR (HEK293-GLP-1R-CRE or HEK293-GIPR-CRE) was then established for in vitro activity assay.
(§1) The EC50 of each peptide was determined using GraphPad Prism 6 software (GraphPad, San Diego, CA).

human GLP-1R = molecular target: T2, human GLP-1R (Homo sapiens, UniProt P43220); assay: In vitro receptor activation reporter assay (CRE-Luc), HEK293-GLP-1R-CRE; assay type: cell-based
T2 construct: expressed in transfected cells
T2 sequence (P43220 24-463): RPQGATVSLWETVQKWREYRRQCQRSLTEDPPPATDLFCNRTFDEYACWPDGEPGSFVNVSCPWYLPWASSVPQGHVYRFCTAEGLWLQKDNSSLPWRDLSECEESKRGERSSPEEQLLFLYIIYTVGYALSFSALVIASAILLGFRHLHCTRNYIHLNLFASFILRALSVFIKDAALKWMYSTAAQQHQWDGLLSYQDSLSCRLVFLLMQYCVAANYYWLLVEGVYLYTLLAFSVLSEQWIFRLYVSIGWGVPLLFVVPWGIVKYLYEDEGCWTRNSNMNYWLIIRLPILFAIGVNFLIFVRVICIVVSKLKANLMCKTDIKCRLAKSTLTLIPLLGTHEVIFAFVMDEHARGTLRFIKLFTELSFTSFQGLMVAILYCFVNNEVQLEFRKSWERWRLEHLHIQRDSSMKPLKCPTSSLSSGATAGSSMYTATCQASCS
Procedure: as §1
HEK293 cells were infected with lentivirus encoding firefly luciferase gene under the control of cAMP responsive element (CRE) promoter (Qiagen, The Netherlands) and then were selected using 1 g/mL puromycin (Life Technologies, Carlsbad) for 1 week. The surviving cells (referred to as CRE-HEK293) were expanded and then transfected with a G418 selective mammalian expression plasmid encoding human GLP-1R. In brief, GLP-1R plasmid was transfected into CRE-HEK293 cells using Lipofectamine 2000 and selected with 400 g/mL Geneticin (Life Technologies, Carlsbad, CA). Single colony stable cell line overexpressing CRE-luciferase and GLP1R was then established for in vitro activity assay.

Question: Which Tlast ([1]; 1 mg/kg I.V.) does the source give for `CC[C@H](C)[C@H](NC(=O)[C@H](CC(C)C)NC(=O)[C@H](Cc1c[nH]c2ccccc12)NC(=O)[C@H](CC(N)=O)NC(=O)[C@@H](NC(=O)[C@H](Cc1ccccc1)NC(=O)[C@@H]1CSCC(=O)NCCN(C(=O)CCC(=O)NCCOCCOCCC(=O)NCCOCCOCCC(=O)NCCCC[C@H](NC(=O)CCCCCCCCCCCCCCCCC(=O)O)C(=O)O)CCNC(=O)CSC[C@H](NC(=O)[C@H](Cc2ccc(O)cc2)NC(=O)[C@@H](NC(=O)[C@H](CO)NC(=O)[C@H](Cc2ccc(O)cc2)NC(=O)[C@H](CC(=O)O)NC(=O)[C@H](CO)NC(=O)[C@@H](NC(=O)[C@H](Cc2ccccc2)NC(=O)[C@@H](NC(=O)CNC(=O)[C@H](CCC(=O)O)NC(=O)C(C)(C)NC(=O)[C@@H](N)Cc2ccc(O)cc2)[C@@H](C)O)[C@@H](C)O)[C@@H](C)CC)C(=O)N[C@@H](CC(=O)O)C(=O)N[C@@H](CCCCN)C(=O)N[C@@H](CCC(N)=O)C(=O)N[C@@H](C)C(=O)N[C@@H](C)C(=O)NC(C)(C)C(=O)N1)C(C)C)C(=O)N[C@@H](C)C(=O)NCC(=O)NCC(=O)N1CCC[C@H]1C(=O)N[C@@H](CO)C(=O)N[C@@H](CO)C(=O)NCC(=O)N[C@@H](C)C(=O)N1CCC[C@H]1C(=O)N1CCC[C@H]1C(=O)N1CCC[C@H]1C(=O)N[C@@H](CO)C(N)=O` [mCMZ370, YAibEGT-FTSDY-SIYXD-KQAAAib-XFVNW-LIAGG-PSSGA-PPPS-NH2 (where each X is C)] here?
Answer: 72 h

Question: And the “AUC—%Extrap—pred” value ([1]; 1 mg/kg I.V., 1 mg/kg)?
Answer: 0.39% and 0.38% and 0.6%

Question: What about the “Cl—pred” value ([1]; 1 mg/kg I.V., 1 mg/kg) of the same molecule?
Answer: 0.162 mL/min/kg

Question: What about the “Vz—pred” value ([1]; 1 mg/kg I.V., 1 mg/kg) of the same molecule?
Answer: 0.099 L/kg

Question: And the Tlast ([1]; 1 mg/kg S.C.)?
Answer: 72 h

Question: What about the “AUC—%Extrap—pred” value ([1]; 1 mg/kg S.C., 1 mg/kg) of the same molecule?
Answer: 0.26% and 0.31% and 0.19%

Question: What about the “AUMC—%Extrap—pred” value ([1]; 1 mg/kg S.C., 1 mg/kg) of the same molecule?
Answer: 0.99%

Question: What about the “Cl—Fpred” value ([1]; 1 mg/kg S.C., 1 mg/kg) of the same molecule?
Answer: 0.24 mL/min/kg and 0.21 mL/min/kg and 0.06 mL/min/kg

Question: What about the “V—F—pred” value ([1]; 1 mg/kg S.C., 1 mg/kg) of the same molecule?
Answer: 0.2 L/kg and 0.15 L/kg and 0.13 L/kg

Question: And the clearance ([1]; mouse, in vivo, iv, 1 mg/kg, 1 mg/kg I.V., read-out: Cl—pred)?
Answer: 0.112 mL/min/kg

Question: What does the source list for `CC[C@H](C)[C@H](NC(=O)[C@H](CC(C)C)NC(=O)[C@H](Cc1c[nH]c2ccccc12)NC(=O)[C@H](CC(N)=O)NC(=O)[C@@H](NC(=O)[C@H](Cc1ccccc1)NC(=O)[C@@H]1CSCC(=O)NCCN(C(=O)CCC(=O)NCCOCCOCCC(=O)NCCOCCOCCC(=O)NCCCC[C@H](NC(=O)CCCCCCCCCCCCCCCCCCC(=O)O)C(=O)O)CCNC(=O)CSC[C@H](NC(=O)[C@H](Cc2ccc(O)cc2)NC(=O)[C@@H](NC(=O)[C@H](CO)NC(=O)[C@@H](NC(=O)[C@H](CC(=O)O)NC(=O)[C@H](CO)NC(=O)[C@@H](NC(=O)[C@H](Cc2ccccc2)NC(=O)[C@@H](NC(=O)CNC(=O)[C@H](CCC(=O)O)NC(=O)C(C)(C)NC(=O)[C@@H](N)Cc2ccc(O)cc2)[C@@H](C)O)[C@@H](C)CC)C(C)C)[C@@H](C)CC)C(=O)N[C@@H](CC(=O)O)C(=O)N[C@@H](CCCCN)C(=O)N[C@@H](CCC(N)=O)C(=O)N[C@@H](C)C(=O)N[C@@H](C)C(=O)NC(C)(C)C(=O)N1)C(C)C)C(=O)N[C@@H](C)C(=O)NCC(=O)NCC(=O)N1CCC[C@H]1C(=O)N[C@@H](CO)C(=O)N[C@@H](CO)C(=O)NCC(=O)N[C@@H](C)C(=O)N1CCC[C@H]1C(=O)N1CCC[C@H]1C(=O)N1CCC[C@H]1C(=O)N[C@@H](CO)C(N)=O` [7I, 10V, 27I, C(14-21) - C20L5A, YAibEGT-FISDV-SIYXD-KQAAAib-XFVNW-LIAGG-PSSGA-PPPS-NH2 (where each X is C)] (H-Y[Aib]EGTFISDVSIYCDKQAA[Aib]CFVNWLIAGGPSSGAPPPS-NH2; linker 14-21 via X2)?
Answer: EC50 (human GIPR; Table 8, read-out: EC50 [nM] GIPR): 303 nM; EC50 (human GLP-1R; Table 8, read-out: EC50 [nM] GLP1R): ~13700 nM

Question: Which EC50 (human GIPR; unnumbered table (Table 10), average of runs, read-out: GIPR (nM) [EC50] average) does the source give for `CC[C@H](C)[C@H](NC(=O)[C@H](CC(C)C)NC(=O)[C@H](Cc1c[nH]c2ccccc12)NC(=O)[C@@H]1CSCC(=O)NCCN(C(=O)CCC(=O)NCCOCCOCCC(=O)NCCOCCOCCC(=O)NCCCC[C@H](NC(=O)CCCCCCCCCCCCCCCCCCC(=O)O)C(=O)O)CCNC(=O)CSC[C@H](NC(=O)[C@H](CCCCN)NC(=O)[C@H](CC(=O)O)NC(=O)[C@H](CC(C)C)NC(=O)[C@H](Cc2ccc(O)cc2)NC(=O)[C@@H](NC(=O)[C@H](CO)NC(=O)[C@H](Cc2ccc(O)cc2)NC(=O)[C@H](CC(=O)O)NC(=O)[C@H](CC(N)=O)NC(=O)[C@@H](NC(=O)[C@H](Cc2ccc(O)cc2)NC(=O)[C@@H](NC(=O)CNC(=O)[C@H](CCC(=O)O)NC(=O)C(C)(C)NC(=O)[C@@H](N)Cc2ccc(O)cc2)[C@@H](C)O)[C@@H](C)O)[C@@H](C)CC)C(=O)N[C@@H](C)C(=O)N[C@@H](C)C(=O)NC(C)(C)C(=O)N[C@@H](CCC(=O)O)C(=O)N[C@@H](Cc2ccccc2)C(=O)N[C@@H](C(C)C)C(=O)N1)C(=O)N[C@@H](C)C(=O)NCC(=O)NCC(=O)N1CCC[C@H]1C(=O)N[C@@H](CO)C(=O)N[C@@H](CO)C(=O)NCC(=O)N[C@@H](C)C(=O)N1CCC[C@H]1C(=O)N1CCC[C@H]1C(=O)N1CCC[C@H]1C(=O)N[C@@H](CO)C(N)=O` [6Y, 8N, 27I, C(17-24) - C20L5A, YAibEGT-YTNDY-SIYLD-KXAAAib-EFVXW-LIAGG-PSSGA-PPPS-NH2 (where each X is C)] (H-Y[Aib]EGTYTNDYSIYLDKCAA[Aib]EFVCWLIAGGPSSGAPPPS-NH2; linker 17-24 via X2) here?
Answer: 2.88 nM

Question: What about the EC50 (human GIPR; unnumbered table (Table 10), run 02/19, read-out: GIPR (nM) [EC50] 02/19) of the same molecule?
Answer: 2.48 nM

Question: And the EC50 (human GIPR; unnumbered table (Table 10), run 03/26, read-out: GIPR (nM) [EC50] 03/26)?
Answer: 3.29 nM

Question: And the EC50 (human GLP-1R; unnumbered table (Table 10), average of runs, read-out: GLP1R (nM) [EC50] average)?
Answer: 0.08 nM

Question: What about the EC50 (human GLP-1R; unnumbered table (Table 10), run 02/19, read-out: GLP1R (nM) [EC50] 02/19) of the same molecule?
Answer: 0.06 nM

Question: What about the EC50 (human GLP-1R; unnumbered table (Table 10), run 3/25, read-out: GLP1R (nM) [EC50] 3/25) of the same molecule?
Answer: 0.11 nM

Question: What about the EC50 (human GLP-1R; unnumbered table (Table 10), run 03/26, read-out: GLP1R (nM) [EC50] 03/26) of the same molecule?
Answer: 0.07 nM

Question: For `CC[C@H](C)[C@H](NC(=O)[C@H](CO)NC(=O)[C@H](Cc1ccc(O)cc1)NC(=O)[C@H](CC(=O)O)NC(=O)[C@H](CO)NC(=O)[C@@H](NC(=O)[C@H](Cc1ccccc1)NC(=O)[C@@H](NC(=O)CNC(=O)[C@H](CCC(=O)O)NC(=O)C(C)(C)NC(=O)[C@@H](N)Cc1ccc(O)cc1)[C@@H](C)O)[C@@H](C)O)C(=O)N[C@@H](Cc1ccc(O)cc1)C(=O)N[C@@H](CC(C)C)C(=O)N[C@@H](CC(=O)O)C(=O)N[C@@H](CCCCN)C(=O)N[C@H]1CSCC(=O)NCCN(C(=O)CCC(=O)NCCOCCOCCC(=O)NCCOCCOCCC(=O)NCCCC[C@H](NC(=O)CCCCCCCCCCCCCCCCC(=O)O)C(=O)O)CCNC(=O)CSC[C@@H](C(=O)N[C@@H](Cc2c[nH]c3ccccc23)C(=O)N[C@@H](CC(C)C)C(=O)N[C@@H](CC(C)C)C(=O)N[C@@H](C)C(=O)NCC(=O)NCC(=O)N2CCC[C@H]2C(=O)N[C@@H](CO)C(=O)N[C@@H](CO)C(=O)NCC(=O)N[C@@H](C)C(=O)N2CCC[C@H]2C(=O)N2CCC[C@H]2C(=O)N2CCC[C@H]2C(=O)N[C@@H](CO)C(N)=O)NC(=O)[C@H](C(C)C)NC(=O)[C@H](Cc2ccccc2)NC(=O)[C@H](CCC(=O)O)NC(=O)C(C)(C)NC(=O)[C@H](C)NC(=O)[C@H](C)NC1=O` [C(17-24) - L5A, YAibEGT-FTSDY-SIYLD-KXAAAib-EFVXW-LLAGG-PSSGA-PPPS-NH2 (where each X is C)], which EC50 (human GIPR; Table 9, read-out: EC50 [nM] GIPR) is on record?
Answer: 0.05 nM

Question: What about the EC50 (human GLP-1R; Table 9, read-out: EC50 [nM] GLP1R) of the same molecule?
Answer: 0.11 nM
